Laboratory results as given in US20250163104A1, “MACROCYCLIC IMMUNOMODULATORS” (priority 2021, published 2025).
Where a SMILES comes first, the peptide text is derived from it. Bridges are numbered along the chain shown (N, C = ends). [ ]: non-standard residue; d: D form. ξ: configuration not given here. Phe(4-COOH) = N[C@@H](Cc1ccc(C(=O)O)cc1)C(=O)O; Bip = N[C@@H](Cc1ccc(-c2ccccc2)cc1)C(=O)O; Phe(3-Me) = Cc1cccc(C[C@H](N)C(=O)O)c1; 4Pal = N[C@@H](Cc1ccncc1)C(=O)O; Cha = N[C@@H](CC1CCCCC1)C(=O)O; Cit = NC(=O)NCCC[C@H](N)C(=O)O; Ile(3ξ) = CCC(C)[C@H](N)C(=O)O; Tle = CC(C)(C)[C@H](N)C(=O)O; Orn = NCCC[C@H](N)C(=O)O; Dab = NCC[C@H](N)C(=O)O

biological target: T1, human PD-1 / PD-L1-Ig binding on Jurkat cell line over-expressing human PD-1 (Jurkat-PD-1) (Homo sapiens, UniProt Q15116); experiment: Jurkat-PD-1 Cell Binding High-Content Screening Assay (CBA); assay type: cell-based; conditions: Jurkat-PD-1 cells, PE-labeled PD-L1-Ig 20 nM final; read-out: Jurkat HPD1_PDL1 IC50
T1 construct: expressed in transfected cells; host or cells: Jurkat
Procedure, shortened: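 PE-PD-L1-Ig 20 nM final; cells in DMEM/10% FCS; cpd pre-incubation 2 h, 37° C; ligand 1 h; PFA fix + Hoechst 33342; high-content imaging read-out.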

T1 sequence (Q15116 25-288): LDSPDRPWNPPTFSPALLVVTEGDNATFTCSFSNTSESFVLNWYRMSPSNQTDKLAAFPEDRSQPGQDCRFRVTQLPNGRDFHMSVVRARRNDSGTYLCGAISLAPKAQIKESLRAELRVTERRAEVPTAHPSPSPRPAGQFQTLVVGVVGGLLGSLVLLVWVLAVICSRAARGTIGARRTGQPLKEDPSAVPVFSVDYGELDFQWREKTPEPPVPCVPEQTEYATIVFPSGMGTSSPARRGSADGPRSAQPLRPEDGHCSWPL

**Q.** For `Cc1cccc(C[C@@H]2NC(=O)[C@H](CC(=O)O)NC(=O)[C@H](Cc3ccc(C(=O)O)cc3)NC(=O)[C@H](Cc3ccncc3)NC(=O)CSC[C@@H](C(N)=O)NC(=O)[C@H](CC(=O)O)NC(=O)[C@H](C(C)C)NC(=O)[C@H](CC3CCCCC3)NC(=O)[C@H](CCN)NC(=O)[C@@H](CC(C)C)NC(=O)[C@H](CCCN)NC(=O)[C@H](CCCNC(N)=O)NC(=O)[C@H](Cc3ccc(-c4ccccc4)cc3)NC(=O)[C@H](C(C)C)NC2=O)c1` [Compound 2270] ({CH2CO}-[4Pal][Phe(4-COOH)]D[Phe(3-Me)]V[Bip][Cit][Orn][dL][Dab][Cha]VDC-NH2; thioether N-14), which IC50 is on record?
**A.** Its IC50 is 0.0245 µM.

**Q.** Which IC50 does the source give for `Cc1cccc(C[C@@H]2NC(=O)[C@H](CC(=O)O)NC(=O)[C@H](Cc3ccc(C(=O)O)cc3)NC(=O)[C@H](Cc3ccncc3)NC(=O)CSC[C@@H](C(N)=O)NC(=O)[C@H](CC(N)=O)NC(=O)[C@H](C(C)C)NC(=O)[C@H](CC3CCCCC3)NC(=O)[C@H](CCN)NC(=O)[C@@H](CC(C)C)NC(=O)[C@H](CCCN)NC(=O)[C@H](CCCNC(N)=O)NC(=O)[C@H](Cc3ccc(-c4ccccc4)cc3)NC(=O)[C@H](C(C)C)NC2=O)c1` [Compound 2271] ({CH2CO}-[4Pal][Phe(4-COOH)]D[Phe(3-Me)]V[Bip][Cit][Orn][dL][Dab][Cha]VNC-NH2; thioether N-14) here?
**A.** Its IC50 is 0.016 µM.

**Q.** For `Cc1cccc(C[C@@H]2NC(=O)[C@H](CC(=O)O)NC(=O)[C@H](Cc3ccc(C(=O)O)cc3)NC(=O)[C@H](Cc3ccncc3)NC(=O)CSC[C@@H](C(N)=O)NC(=O)[C@H](CCC(N)=O)NC(=O)[C@H](C(C)C)NC(=O)[C@H](CC3CCCCC3)NC(=O)[C@H](CCN)NC(=O)[C@@H](CC(C)C)NC(=O)[C@H](CCCN)NC(=O)[C@H](CCCNC(N)=O)NC(=O)[C@H](Cc3ccc(-c4ccccc4)cc3)NC(=O)[C@H](C(C)C)NC2=O)c1` [Compound 2272] ({CH2CO}-[4Pal][Phe(4-COOH)]D[Phe(3-Me)]V[Bip][Cit][Orn][dL][Dab][Cha]VQC-NH2; thioether N-14), which IC50 is on record?
**A.** The IC50 was 0.032 µM.

**Q.** With `CCC(C)[C@@H]1NC(=O)[C@H](Cc2ccc(-c3ccccc3)cc2)NC(=O)[C@H](C(C)C)NC(=O)[C@H](Cc2cccc(C)c2)NC(=O)[C@H](CC(=O)O)NC(=O)[C@H](Cc2ccc(C(=O)O)cc2)NC(=O)[C@H](Cc2ccncc2)NC(=O)CSC[C@@H](C(N)=O)NC(=O)[C@H](CCCN)NC(=O)[C@H](C(C)C)NC(=O)[C@H](CC2CCCCC2)NC(=O)[C@H](CCN)NC(=O)[C@@H](CC(C)C)NC(=O)[C@H](CCCN)NC1=O` (stereo partly drawn) [Compound 2273] ({CH2CO}-[4Pal][Phe(4-COOH)]D[Phe(3-Me)]V[Bip][Ile(3ξ)][Orn][dL][Dab][Cha]V[Orn]C-NH2; thioether N-14) as the compound, how does the IC50 read?
**A.** Its IC50 is 0.0266 µM.

**Q.** `CCC(C)[C@@H]1NC(=O)[C@H](Cc2ccc(-c3ccccc3)cc2)NC(=O)[C@H](C(C)C)NC(=O)[C@H](Cc2cccc(C)c2)NC(=O)[C@H](CC(=O)O)NC(=O)[C@H](Cc2ccc(C(=O)O)cc2)NC(=O)[C@H](Cc2ccncc2)NC(=O)CSC[C@@H](C(N)=O)NC(=O)[C@H]([C@@H](C)O)NC(=O)[C@H](C(C)(C)C)NC(=O)[C@H](CC2CCCCC2)NC(=O)[C@H](CCN)NC(=O)[C@@H](CC(C)C)NC(=O)[C@H](CCCN)NC1=O` (stereo partly drawn) [Compound 2274] ({CH2CO}-[4Pal][Phe(4-COOH)]D[Phe(3-Me)]V[Bip][Ile(3ξ)][Orn][dL][Dab][Cha][Tle]TC-NH2; thioether N-14) was tested. Which IC50 did it give?
**A.** Its IC50 is 0.0363 µM.

**Q.** `CCC(C)[C@@H]1NC(=O)[C@H](Cc2ccc(-c3ccccc3)cc2)NC(=O)[C@H](C(C)C)NC(=O)[C@H](Cc2cccc(C)c2)NC(=O)[C@H](CC(=O)O)NC(=O)[C@H](Cc2ccc(C(=O)O)cc2)NC(=O)[C@H](Cc2ccncc2)NC(=O)CSC[C@@H](C(N)=O)NC(=O)[C@H]([C@@H](C)O)NC(=O)[C@H](C(C)C)NC(=O)[C@H](CC2CCCCC2)NC(=O)[C@H](CCN)NC(=O)[C@@H](CC(C)C)NC(=O)[C@H](CCCN)NC1=O` (stereo partly drawn) [Compound 2275] ({CH2CO}-[4Pal][Phe(4-COOH)]D[Phe(3-Me)]V[Bip][Ile(3ξ)][Orn][dL][Dab][Cha]VTC-NH2; thioether N-14) was tested. Which IC50 did it give?
**A.** Its IC50 is 0.0335 µM.
